Our source for the IC50 values is patent US7091352B2, “Compounds substituted with bicyclic amino groups” (priority 2001, dated 2006).

The subject of one experiment is TNFα production. The experiment in a line: Inhibition of the production of TNFα in vitro in human whole blood (LPS stimulation, ELISA). It is filed as cell-based. As to conditions: read-out: Inhibitory Effect on TNFα Production IC50. On the procedure:
(§1) This test was performed according to the method of Hartman, et al. [D. A. Hartman, S. J. Ochalski and R. P. Carlson; The effects of anti-inflammatory and antiallergic drugs on cytokine release after stimulation of human whole blood by lipopolysaccharide and zymosan A: Inflamm. Res., 44, 269 (1995)].
(§2) Peripheral blood samples were collected in the presence of heparin from healthy adult volunteers. 1000 μl of whole blood were added to an Eppendorf tube to which 2 μl of a dimethyl sulfoxide solution of the test compound had been added in advance, after which 10 μl of lipopolysaccharide (E. coli 026: B6 origin, Difco) were added as a stimulant (final concentration of said lipopolysaccharide: 10 μg/ml). This was mixed well and then incubated for 6 hours at 37° C. in the presence of 5% CO2. At the end of the incubation, the mixture was cooled to 4° C. to stop the reaction, followed immediately by centrifuging for 5 minutes at 14,000 rpm to separate and collect the supernatant plasma. The IL-1β and TNFα produced and released into the plasma were measured using commercially available enzyme immunoassay (ELISA) kits [Cayman (IL-1β) and Genzyme (TNFα)]. […] The inhibitory effect [IC50 (μM)] on the production of IL-1β and TNFα was determined by the method of least squares from the amounts of the cytokines produced in the presence and absence of the test compound.
Background: An ELISA detects its analyte on a solid surface through an enzyme-linked reagent.

The next experiment relates to IL-1β production. The experiment in a line: Inhibition of the production of IL-1β in vitro in human whole blood (LPS stimulation, ELISA). As to conditions: lipopolysaccharide 10 μg/ml, 6 hours at 37° C., plasma ELISA, read-out: Inhibitory Effect on IL-1β Production IC50. It is filed as cell-based. How it is done:
as §1, §2

Structures are written as SMILES. pIC50: −log10 of the molar value. Where two headings read alike, the source gives them in different places.

Usually pIC50 stands for the negative decadic logarithm of the IC50, by convention in mol/L. `OC1(c2n[nH]c(-c3ccc(F)cc3)c2-c2ccncc2)CCN2CCCC2C1` (racemic) [Example 2, (±)-5-(4-Fluorophenyl)-3-(7-hydroxy-1,2,3,5,6,7,8,8a-octahydroindolizin-7-yl)-4-(pyridin-4-yl)pyrazole]: the negative logarithm of the IC50 (pIC50) is 7.15 with TNFα production (human whole blood, lipopolysaccharide 10 μg/ml, 6 hours at 37° C., plasma ELISA) and 7.46 in the experiment with IL-1β production.
For the compound `CC1C[C@H]2C=C(c3n[nH]c(-c4ccc(F)cc4)c3-c3ccncc3)CCN2C1` (stereo partly drawn) [Example 12, 5-(4-Fluorophenyl)-3-[(8aS)-2-methyl-1,2,3,5,6,8a-hexahydroindolizin-7-yl]-4-(pyridin-4-yl)pyrazole], the pIC50 with TNFα production (Homo sapiens, 6 h) was 8.59.
